Source: ChEMBL document CHEMBL1138038, “Sequence-based design and discovery of peptide inhibitors of HIV-1 integrase: insight into the binding mode of the enzyme” (J Med Chem, 2006)
pIC50: −log10 of the molar value. Residues, ends and D or L forms follow the SMILES beside them.

Columns and labels:
[1] = molecular target: T1, Human immunodeficiency virus type 1 integrase (Human immunodeficiency virus 1, UniProt Q7ZJM1); test: Inhibition of wild type HIV1 integrase 3' processing activity
[2] = molecular target: T1, Human immunodeficiency virus type 1 integrase; test: Inhibition of wild type HIV1 integrase strand transfer activity

T1 sequence (Q7ZJM1 whole entry): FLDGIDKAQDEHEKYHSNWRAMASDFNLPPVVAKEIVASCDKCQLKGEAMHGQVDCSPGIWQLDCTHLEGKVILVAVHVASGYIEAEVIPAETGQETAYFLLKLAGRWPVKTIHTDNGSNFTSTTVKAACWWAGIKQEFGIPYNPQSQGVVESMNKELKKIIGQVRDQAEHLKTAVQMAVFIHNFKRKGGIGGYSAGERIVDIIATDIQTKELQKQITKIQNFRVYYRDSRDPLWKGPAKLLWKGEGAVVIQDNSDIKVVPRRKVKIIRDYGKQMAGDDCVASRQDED

Compound H-TAYFLLKAAGRW-OH has a pIC50 [1] of under 3.48 and a pIC50 [2] of 3.97.

For H-ACWWAGIRQEF-NH2, the pIC50 [1] was under 3.48 and the pIC50 [2] was under 3.48.

In the case of CC[C@@H](C)[C@@H](NC(=O)[C@@H](CCCCN)NC(=O)[C@@H](CCC(N)=O)NC(=O)[C@@H](CCC(=O)O)NC(=O)[C@H](N)Cc1ccccc1)C(=O)NCC(=O)N[C@H](C)C(=O)N[C@H](Cc1c[nH]c2ccccc12)C(=O)N[C@H](Cc1c[nH]c2ccccc12)C(=O)N[C@@H](CS)C(=O)N[C@H](C)C(=O)O, the pIC50 [1] was under 3.00 and the pIC50 [2] was under 3.00.

H-ACWWAGIKQAF-OH was tested, and the pIC50 [1] was under 3.48 and the pIC50 [2] was under 3.48.

H-ACWWAGIAQEF-OH gave a pIC50 [1] of 4.21 and a pIC50 [2] of 4.26.

H-IKQEF-NH2 showed a pIC50 [1] of under 4.00 and a pIC50 [2] of under 4.00.

With H-ACGWAGIKQEF-NH2 the pIC50 [1] was 4.34 and the pIC50 [2] was 4.80.

H-TAYFALKLAGRW-OH showed a pIC50 [1] of 3.94 and a pIC50 [2] of 4.29.

H-TAYFLLKLAGRL-NH2 gave a pIC50 [1] of 3.50 and a pIC50 [2] of 4.42.

H-ACWWAG-NH2 gave a pIC50 [1] of under 4.00 and a pIC50 [2] of 4.22.

Work on H-PAETGQET-NH2 yielded a pIC50 [1] of under 2.70 and a pIC50 [2] of under 2.70.

Compound H-VRDQAEHLKT-NH2 has a pIC50 [1] of under 2.70 and a pIC50 [2] of under 2.70.

Work on H-WKGPAKLLWK-NH2 yielded a pIC50 [1] of under 3.00 and a pIC50 [2] of under 3.00.

Work on H-KLAGRW-NH2 yielded a pIC50 [1] of under 4.00 and a pIC50 [2] of under 4.00.

With H-ESMNKELKKI-NH2 the pIC50 [1] was under 2.70 and the pIC50 [2] was under 2.70.

With H-ACWWAAIKQEF-OH the pIC50 [1] was 4.05 and the pIC50 [2] was 4.37.

Compound H-TAYFLLALAGRW-OH has a pIC50 [1] of 3.95 and a pIC50 [2] of 4.25.

H-ACWGAGIKQEF-NH2 was tested, and the pIC50 [1] was under 3.48 and the pIC50 [2] was under 3.48.

H-YFLLKL-NH2 was tested, and the pIC50 [1] was 4.70 and the pIC50 [2] was 4.70.

With H-TAYFLLILAGRW-NH2 the pIC50 [1] was 5.39 and the pIC50 [2] was 5.52.

For H-TAYFLLKLAGAW-OH, the pIC50 [1] was 4.08 and the pIC50 [2] was 4.10.

H-TAYFLL-NH2 was tested, and the pIC50 [1] was 3.30 and the pIC50 [2] was 3.30.

H-ACWWAGIKAEF-OH showed a pIC50 [1] of under 3.48 and a pIC50 [2] of under 3.48.

With H-TAAFLLKLAGRW-OH the pIC50 [1] was 3.71 and the pIC50 [2] was 3.92.

With H-ACWWAGIKQEA-OH the pIC50 [1] was 3.61 and the pIC50 [2] was 3.69.

H-ASWWAGIKQEF-NH2 showed a pIC50 [1] of 3.53 and a pIC50 [2] of 3.79.

Work on H-ACWWAGIKQEF-NH2 yielded a pIC50 [1] of 4.02 and a pIC50 [2] of 4.25.

Compound H-FGIPYNPQSQ-NH2 has a pIC50 [1] of under 3.00 and a pIC50 [2] of under 3.00.

CC(C)C[C@@H](NC(=O)[C@@H](CCCCN)NC(=O)[C@@H](CC(C)C)NC(=O)[C@@H](CC(C)C)NC(=O)[C@@H](Cc1ccccc1)NC(=O)[C@@H](Cc1ccc(O)cc1)NC(=O)[C@@H](C)NC(=O)[C@H](N)[C@H](C)O)C(=O)N[C@H](C)C(=O)NCC(=O)N[C@H](CCCN=C(N)N)C(=O)N[C@H](Cc1c[nH]c2ccccc12)C(=O)O gave a pIC50 [1] of 4.02 and a pIC50 [2] of 4.80.

In the case of H-GYSAGERIVD-NH2, the pIC50 [1] was under 2.70 and the pIC50 [2] was under 2.70.

H-AAYFLLKLAGRW-OH was tested, and the pIC50 [1] was 4.00 and the pIC50 [2] was 4.33.

In the case of CC[C@H](C)[C@H](NC(=O)[C@H](CCCCN)NC(=O)[C@H](CCC(N)=O)NC(=O)[C@H](CCC(=O)O)NC(=O)[C@@H](N)Cc1ccccc1)C(=O)NCC(=O)N[C@@H](C)C(=O)N[C@@H](Cc1c[nH]c2ccccc12)C(=O)N[C@@H](Cc1c[nH]c2ccccc12)C(=O)N[C@@H](CS)C(=O)N[C@@H](C)C(=O)O, the pIC50 [1] was under 3.00 and the pIC50 [2] was under 3.00.

For H-WAGIKQ-NH2, the pIC50 [1] was under 4.00 and the pIC50 [2] was under 4.00.

With H-VPRRKAKI-NH2 the pIC50 [1] was under 3.00 and the pIC50 [2] was under 3.00.

In the case of H-GRWPVKT-NH2, the pIC50 [1] was under 2.70 and the pIC50 [2] was under 2.70.

With H-TAYFLLKLAGRA-OH the pIC50 [1] was under 3.48 and the pIC50 [2] was under 3.48.

H-EEHEKYHSNW-NH2 was tested, and the pIC50 [1] was under 2.70 and the pIC50 [2] was under 2.70.

H-ACWAAGIKQEF-OH gave a pIC50 [1] of under 3.48 and a pIC50 [2] of under 3.48.

CC(C)C[C@H](NC(=O)[C@H](CCCCN)NC(=O)[C@H](CC(C)C)NC(=O)[C@H](CC(C)C)NC(=O)[C@H](Cc1ccccc1)NC(=O)[C@H](Cc1ccc(O)cc1)NC(=O)[C@H](C)NC(=O)[C@@H](N)[C@@H](C)O)C(=O)N[C@@H](C)C(=O)N[C@@H](C)C(=O)N[C@@H](CCCN=C(N)N)C(=O)N[C@@H](Cc1c[nH]c2ccccc12)C(=O)O gave a pIC50 [1] of 3.93 and a pIC50 [2] of 4.72.

H-ACWWAGAKQEF-OH showed a pIC50 [1] of under 3.48 and a pIC50 [2] of under 3.48.

Work on CC(C)C[C@H](NC(=O)[C@H](CCCCN)NC(=O)[C@H](CC(C)C)NC(=O)[C@H](CC(C)C)NC(=O)[C@H](Cc1ccccc1)NC(=O)[C@H](Cc1ccc(O)cc1)NC(=O)[C@H](C)NC(=O)[C@@H](N)[C@@H](C)O)C(=O)N[C@@H](C)C(=O)NCC(=O)N[C@@H](CCCN=C(N)N)C(=O)N[C@@H](Cc1c[nH]c2ccccc12)C(N)=O yielded a pIC50 [1] of 4.68 and a pIC50 [2] of 5.57.

For CC[C@H](C)[C@H](NC(=O)CNC(=O)[C@@H]1CCCN1C(=O)[C@H](CO)NC(=O)[C@H](CS)NC(=O)[C@H](CC(=O)O)NC(=O)[C@@H](NC(=O)[C@H](CCC(N)=O)NC(=O)CNC(=O)[C@@H](N)Cc1cnc[nH]1)C(C)C)C(=O)N[C@@H](Cc1c[nH]c2ccccc12)C(=O)N[C@@H](CCC(N)=O)C(=O)N[C@@H](CC(C)C)C(=O)N[C@@H](CC(=O)O)C(=O)N[C@@H](CS)C(=O)N[C@H](C(=O)N[C@@H](Cc1cnc[nH]1)C(N)=O)[C@@H](C)O (H-HGQVDCSPGIWQLDCTH-NH2), the pIC50 [1] was 3.00 and the pIC50 [2] was 3.00.

CC(C)C[C@@H](NC(=O)[C@@H](C)NC(=O)CNC(=O)[C@@H](CCCN=C(N)N)NC(=O)[C@H](N)Cc1c[nH]c2ccccc12)C(=O)N[C@H](CCCCN)C(=O)N[C@H](CC(C)C)C(=O)N[C@H](CC(C)C)C(=O)N[C@H](Cc1ccccc1)C(=O)N[C@H](Cc1ccc(O)cc1)C(=O)N[C@H](C)C(=O)N[C@@H](C(=O)O)[C@H](C)O gave a pIC50 [1] of 5.46 and a pIC50 [2] of 5.40.

CC(C)C[C@@H](NC(=O)[C@@H](CCCCN)NC(=O)[C@@H](CC(C)C)NC(=O)[C@@H](CC(C)C)NC(=O)[C@@H](Cc1ccccc1)NC(=O)[C@@H](Cc1ccc(O)cc1)NC(=O)[C@@H](C)NC(=O)[C@H](N)[C@H](C)O)C(=O)N[C@H](C)C(=O)NCC(=O)N[C@H](CCCN=C(N)N)C(=O)N[C@H](Cc1c[nH]c2ccccc12)C(N)=O gave a pIC50 [1] of 4.19 and a pIC50 [2] of 4.89.

In the case of H-AAWWAGIKQEF-OH, the pIC50 [1] was 3.56 and the pIC50 [2] was 3.51.

H-FIHNFKRK-NH2 gave a pIC50 [1] of under 2.70 and a pIC50 [2] of under 2.70.

Compound H-ACAWAGIKQEF-OH has a pIC50 [1] of 4.48 and a pIC50 [2] of 4.47.

CC(C)C[C@H](NC(=O)[C@H](CCC(N)=O)NC(=O)[C@H](CS)NC(=O)[C@H](CCCCN)NC(=O)[C@H](CC(=O)O)NC(=O)[C@H](CS)NC(=O)[C@H](CO)NC(=O)[C@H](C)N)C(=O)N[C@@H](CCCCN)C(=O)NCC(N)=O (H-ASCDKCQLKG-NH2) showed a pIC50 [1] of under 2.70 and a pIC50 [2] of under 2.70.

H-VHVASGY-NH2 was tested, and the pIC50 [1] was under 2.70 and the pIC50 [2] was under 2.70.

H-TASFLLKLAGRW-NH2 gave a pIC50 [1] of 3.73 and a pIC50 [2] of 4.96.

CC[C@@H](C)[C@@H](NC(=O)CNC(=O)[C@@H](C)NC(=O)[C@@H](Cc1c[nH]c2ccccc12)NC(=O)[C@@H](Cc1c[nH]c2ccccc12)NC(=O)[C@@H](CS)NC(=O)[C@@H](C)N)C(=O)N[C@H](CCCCN)C(=O)N[C@H](CCC(N)=O)C(=O)N[C@H](CCC(=O)O)C(=O)N[C@H](Cc1ccccc1)C(=O)O was tested, and the pIC50 [1] was under 3.00 and the pIC50 [2] was under 3.00.

For H-TAYFLAKLAGRW-OH, the pIC50 [1] was under 3.48 and the pIC50 [2] was under 3.48.

Compound H-TAYALLKLAGRW-OH has a pIC50 [1] of under 3.48 and a pIC50 [2] of under 3.48.

H-HTDNGSNF-NH2 gave a pIC50 [1] of under 2.70 and a pIC50 [2] of under 2.70.
